# Legend:
# [1] = tested on: urease positive Escherichia coli ATCC 25922; experiment: Biofilm eradication in model urinary catheter flow system; format: cell-based; conditions: for Average Log CFU/cm^2 on catheter section after treatment, average 3 pieces / Average Log CFU/cm^2 on catheter section after treatment, end / Average Log CFU/cm^2 on catheter section after treatment, front / Average Log CFU/cm^2 on catheter section after treatment, middle / Log reduction: pH 4, 0.9% NaCl; for Average Log CFU/cm^2 on catheter section after treatment, average 3 pieces / Average Log CFU/cm^2 on catheter section after treatment, end / Average Log CFU/cm^2 on catheter section after treatment, front / Average Log CFU/cm^2 on catheter section after treatment, middle: 3-day biofilm, 10 min flow + 30 min stationary; for Log reduction: versus PBS or saline
# Experimental: A test system was established which utilized size 14 Foley catheters (supplied by NovaCal), which were cut and installed into a pre-sterilized flow system (FIG. 4) using aseptic techniques. The system consists of five parallel channels, one channel per catheter. Sterile medium was supplied to the system via a flow-break, to prevent back-growth into the medium reservoir. The entire system was placed in a 37° C. incubator. After conditioning the system with artificial urine medium for 30 minutes, 2.0 ml inoculum from an overnight culture of urease positive Escherichia coli ATCC 25922 grown in artificial urine medium at 37° C. was introduced into the system via the valve closest to the flow break (bladder side of catheter). Each inoculum was tested to confirm urease production. After inoculation, the system remained under static conditions (no flow) for two hours, to allow for bacterial attachment to the catheters. Flow of artificial urine medium was then initiated and maintained at a rate of 0.75 ml/min for 3 days.
# Test Articles Used Were: • Sterile saline • N,N-dichloro 2,2-dimethyl taurine, 4 mM, pH 4, 0.9% by weight NaCl • N,N-dichloro 2,2-dimethyl taurine, 40 mM, pH 4, 0.9% by weight NaCl
# 20 ml of each treatment solution N,N-dichloro 2,2-dimethyl taurine and sterile control solution were loaded into 30 ml syringes and connected to a syringe pump. Sterile sections of tubing were attached from the syringe to the valve furthest from the flow break (bag end of the catheter). This end is designated as FRONT for sampling purposes. The pump was turned on and the treatments were introduced at 2.0 ml/min for 10 minutes through the catheters. Excess medium and treatment solution was captured in a waste container. After 10 minutes, the syringe pump was turned off and the solutions were left stationary in the catheters for 30 minutes. The solutions were then withdrawn back through the catheter into the syringe, medium flow was resumed for a 30 minute rinse time and the catheters were then sampled.
# Each catheter was divided into 3 segments (front, middle, end) and each segment was subsampled. One subsample was used to determine bacterial populations by plate count, another subsample was analyzed by staining with the LIVE/DEAD® Baclight™ bacterial viability kit (L7012, Molecular Probes, Oregon, USA) using confocal laser microscopy (CSLM), the third sample was imaged using scanning electron microscopy (SEM).
# (§1) For viable cell counts, a 3.0 centimeter section of tubing was removed and scraped with a sterile stainless steel rod (using aseptic technique) into a tube containing 10.0 ml of sterile phosphate-buffered saline (PBS). The tubes were then sonicated for two minutes and the suspension was vortexed for one minute. The number of viable (culturable) bacteria was enumerated by serial dilution in PBS and plate counts using the spread-plate technique. Results were expressed as CFU/cm^2 and are calculated as follows: [formula]
# The surface area of the internal lumen of the catheter section scraped was determined to be 2.826 cm^2.
# Three treatment runs were performed on 3 catheters each: One treated with PBS or sterile 0.9% saline as control, one treated with 4 mM and one treated with 40 mM N,N-dichloro 2,2-dimethyl taurine. The Log (CFU/cm^2) was calculated from the average of 9 treatments, consisting of 3 treatments of 3 catheter pieces for each Test Article.
# [2] = tested on: bacteria on Foley catheter removed from a patient; experiment: Ex-vivo treatment of a patient catheter, viable plate counts; format: cell-based; conditions: 40 mM
# Experimental: Test Articles Used Were: • Sterile phosphate-buffered saline (PBS) • N,N-dichloro 2,2-dimethyl taurine, 40 mM, pH 4, 0.9% by weight NaCl
# A Foley catheter was removed from a patient by hospital personnel and placed in a sterile bag. In the Bozeman Deaconess Hospital (BDH) lab, the outside of the catheter was wiped down with 70% ethanol. Then the catheter was aseptically cut into 3 catheter portions (bag-end, middle and patient-end). Each portion was cut into 3.0 cm long sections using a ruler and razor blades.
# Three of the sections (one bag-end, one middle and one patient-end) designated as control were placed into sterile PBS. Three of the sections (one bag-end, one middle and one patient-end) were placed in 40 mM N,N-dichloro 2,2-dimethyl taurine. All catheter sections were treated for 30 minutes individually in sterile glass tubes, each with sufficient solution to be immersed completely. After treatment, each 3 cm section was removed from the treatment tubes and the PBS control tubes and placed into a second glass tube containing sterile PBS for a 2 minute rinse in order to remove the treatment solution. The section was then removed from the tube and aseptically cut into 1.0 cm and 2.0 cm pieces. The 2.0 cm piece was placed in a tube containing 10 ml of sterile PBS, vortexed, sonicated and diluted for viable plate counts. The number of viable (culturable) bacteria was enumerated by serial dilution in PBS and plate counts using the spread-plate technique. Samples were plated on blood agar plates. Results will be expressed as colony-forming units/cm^2, CFU/cm^2 (calculated as 2.0 cm length×0.25 cm (radius)×3.14 (pi)=1.57 cm^2). The 1.0 cm piece was placed in 4% formaldehyde solution.
# [3] = tested on: E. coli and Pr. mirabilis; experiment: Treated biofilm-bearing catheter pieces: re-culture (OD600) and visual examination; format: cell-based, Escherichia coli; Proteus mirabilis
# Experimental: In order to measure the amount of live bacteria left on the pieces of catheter following treatment, the biofilm-bearing pieces of catheter were transferred into tubes containing fresh growth medium. After allowing growth in a shaker at 37° C. for 4 hours, Optical Density (OD) was read at 600 nm.
# This was also shown by very low optical denisty readings (average of 0.057 OD600 units, individual data not listed) following the attempt to re-culture the bacteria from treated catheters.
# [4] = tested on: Proteus mirabilis ATCC 29245; experiment: Destruction of 48 h biofilm on 1-cm Foley catheter pieces, plate count; format: cell-based; conditions: 33 mM, 0.9% saline, pH 3.5
# Experimental: (§2) We have devised a dynamic in vitro model using traditional microbiological methods to assess the antimicrobial efficacy of 33 mM N, N-dichloro 2,2-dimethly taurine in 0.9% saline at pH 3.5, as compared to physiological saline in disinfecting intra-luminal and extra-luminal indwelling Foley catheter.
# (§3) Foley Catheter, manufactured by BARD • N,N-dichloro 2,2-dimethyl taurine (33 mM) in 0.9% saline pH 3.5 • Escherichia coli ATCC 25922 • Proteus mirabilis ATCC 29245
# (§4) Neutralizer Broth containing: A broth containing dextrose, lecithin, sodium thiosulfate, pancreatic digest of casein, Tween® 80, yeast extract, sodium bisulfate, sodium thioglycollate, monopotassium phosphate, and bromcresol purple.
# (§5) The ability of N,N-dichloro 2,2-dimethyl taurine to destroy biofilm formation was evaluated as follows. First, biofilm was established on 1-cm-long pieces of catheter for 48 hours in nutrient broth in the presence of either Proteus mirabilis or Escherichia coli. Subsequently, the biofilm-bearing pieces of catheter were exposed to 33 mM N,N-dichloro 2,2-dimethyl taurine in 0.9% saline at pH 3.5 over various periods of time. After the exposure, the pieces of catheter were transferred into 1 mL of neutralizer broth to stop the reaction. 0.1 mL (10%) of the neutralizer broth was then plated out onto nutrient agar and the number of colonies was counted. The CFU (Colony Forming Unit) values obtained were multiplied by 10 to obtain the actual CFU/mL values per treated sample.
# [5] = tested on: Escherichia coli ATCC 25922; experiment: as above; format: cell-based; conditions: 33 mM, 0.9% saline, pH 3.5
# Experimental: as §2, §3, §4, §5
# [6] = tested on: urease positive Escherichia coli ATCC 25922; experiment: Biofilm prevention in model urinary catheter flow system; format: cell-based
# Experimental: Test Articles Used Were: • Sterile saline • White vinegar at 1:3 dilution with distilled water (filter sterilized). • Neomycin Prescription: 1 ml into 1000 ml of sterile saline • N,N-dichloro 2,2-dimethyl taurine, 40 mM, pH 4, 0.9% by weight NaCl
# Day 0: The test system, as described in detail above, utilized size 14 Foley catheters, cut and installed into a pre-sterilized flow system using aseptic techniques. Sterile medium was supplied to the system via a flow-break, to prevent back-growth into the medium reservoir. The entire system was placed into a 37° C. incubator. After conditioning the system with artificial urine medium for 30 minutes, each catheter was treated with a disinfectant. 20.0 ml of each treatment solution was loaded into 30 ml syringes and connected to a syringe pump. Sterile sections of tubing were attached from the syringe to the valve furthest from the flow break (bag end of the catheter). This end is designated as FRONT for sampling purposes. The pump was turned on and the treatments were introduced at 2.0 ml/min for 10 minutes through the catheters. Excess medium and treatment solution was captured in a waste container. After 10 minutes, the syringe pump was turned off and the solutions were left stationary in the catheters for 30 minutes. The solutions were then withdrawn back through the catheter into the syringe. The catheters were then rinsed with sterile medium for 30 minutes.
# On Day 0 only: An inoculum from an overnight culture of urease positive Escherichia coli ATCC 25922 grown in artificial urine medium at 37° C. was introduced into the system via the valve closest to the flow break (bladder side of catheter). Each inoculum was tested for confirmation of urease production. After inoculation, the system remained under static conditions (no flow) for two hours, to allow for bacterial attachment to the catheters. Flow of artificial urine medium was then initiated and maintained at a rate of 0.75 ml/min.
# as §1, with “Days 1, 3 and 5: For” for “For”, “sterile PBS.” for “sterile phosphate-buffered saline (PBS).”, “Results are” for “Results were”, “and were” for “and are”, “as described in Phase One.” for “as follows: [formula]”
# Days 1 and 3: After sampling, the catheters were disinfected and rinsed with sterile medium as described above.
# Days 2 and 4: the catheters were disinfected and rinsed with sterile medium as described above. No samples were taken.
# Day 5: Samples were taken for imaging and both ends of the catheter were sampled for viable cell count data.
# [7] = pH 4, 0.9% NaCl, 30 min immersion
# [8] = daily treatment, DCDMT 40 mM pH 4 0.9% NaCl, vinegar 1:3 in water, neomycin prescription 1 ml in 1000 ml saline
structure (smiles),measurement,setting,value
"CC(C)(CS(=O)(=O)O)N(Cl)Cl [N,N-dichloro 2,2-dimethyl taurine]",bacterial counts and presence of biofilm (visual interpretation from images),[1]; 4 mM and 40 mM,significantly reduced
same,"Average Log CFU/cm^2 on catheter section after treatment, average 3 pieces",[1]; 4 mM,4.4 Log CFU/cm^2
same,"Average Log CFU/cm^2 on catheter section after treatment, end",[1]; 4 mM,5.1 Log CFU/cm^2
same,"Average Log CFU/cm^2 on catheter section after treatment, front",[1]; 4 mM,4.1 Log CFU/cm^2
same,"Average Log CFU/cm^2 on catheter section after treatment, middle",[1]; 4 mM,3.9 Log CFU/cm^2
same,Log reduction,[1]; 4 mM,4.7 Log
same,"Average Log CFU/cm^2 on catheter section after treatment, average 3 pieces",[1]; 40 mM,3.8 Log CFU/cm^2
same,"Average Log CFU/cm^2 on catheter section after treatment, end",[1]; 40 mM,3.8 Log CFU/cm^2
same,"Average Log CFU/cm^2 on catheter section after treatment, front",[1]; 40 mM,3.7 Log CFU/cm^2
same,"Average Log CFU/cm^2 on catheter section after treatment, middle",[1]; 40 mM,3.8 Log CFU/cm^2
same,Log reduction,[1]; 40 mM,5.3 Log
same,"Average Log CFU/cm^2 on catheter section after treatment, average 3 pieces",[2]; [7],1.2 Log CFU/cm^2
same,"Average Log CFU/cm^2 on catheter section after treatment, bag end",[2]; [7],2.1 Log CFU/cm^2
same,"Average Log CFU/cm^2 on catheter section after treatment, middle",[2]; [7],0.5 Log CFU/cm^2
same,"Average Log CFU/cm^2 on catheter section after treatment, patient end",[2]; [7],0.8 Log CFU/cm^2
same,Log reduction,[2]; compared to catheter pieces treated with sterile PBS,1.8 Log
same,Visual examination of biofilm on the catheter surface,[3]; 33 mM in 0.9% saline at pH 3.5,subsequent removal
same,optical density readings following re-culture of bacteria from treated catheters (average),"[3]; 33 mM, 0.9% saline, pH 3.5, 4 h growth at 37 C in fresh medium, average, individual data not listed",0.057 OD600 units
same,CFU/mL,[4]; exposure 5 min,1210 CFU/mL
same,CFU/mL,[4]; exposure 10 min,150 CFU/mL
same,CFU/mL,[4]; exposure 20 min,150 CFU/mL
same,CFU/mL,[4]; exposure 30 min,100 CFU/mL
same,CFU/mL,[4]; exposure 45 min,20 CFU/mL
same,CFU/mL,[4]; exposure 60 min,10 CFU/mL
same,CFU/mL,[4]; exposure 120 min,260 CFU/mL
same,CFU/mL,[4]; exposure <1 min,>>3000 CFU/mL
same,CFU/mL,[5]; exposure 5 min,0 CFU/mL
same,CFU/mL,[5]; exposure 10 min,0 CFU/mL
same,CFU/mL,[5]; exposure 20 min,0 CFU/mL
same,CFU/mL,[5]; exposure 30 min,0 CFU/mL
same,CFU/mL,[5]; exposure 45 min,0 CFU/mL
same,CFU/mL,[5]; exposure 60 min,0 CFU/mL
same,CFU/mL,[5]; exposure 120 min,0 CFU/mL
same,CFU/mL,[5]; exposure <1 min,0 CFU/mL
same,biofilm formation during the 5 day duration of the experiment,"[6]; 40 mM, pH 4, 0.9% NaCl",appeared to inhibit biofilm formation
same,"Biofilm prevention, viable cell count, Day 1",[6]; [8],2.6 log CFU/cm^2
same,"Biofilm prevention, viable cell count, Day 3",[6]; [8],3.2 log CFU/cm^2
same,"Biofilm prevention, viable cell count, Day 5 ""End"" (bladder end)",[6]; [8],3.1 log CFU/cm^2
same,"Biofilm prevention, viable cell count, Day 5 ""Front"" (bag end)",[6]; [8],3.9 log CFU/cm^2
